# Calls of active or inactive are those of the source.
# Legend:
# [1] = inhibitors of clade B AD8 Env fusion, dose response, cell-based, cherry-pick (AID 652062); assay type: functional;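 further: luciferase signal from cell-cell fusion driven by HIV-1 clade B AD8 Env; potency is for inhibitors of fusion seen as a drop in luminescence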
# [2] = inhibitors of HIV Env-driven cell fusion, dose response, cherry-pick (AID 652057); assay type: functional, cell-based
# [3] = CEM21 lymphoblast cell cytotoxicity, dose response, cytotoxicity control for viral fusion inhibitor project, CellTiter-Glo luminescence, cherry-picked (AID 652042); assay type: functional, cell-based;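 further: potency for signal decrease meaning cytotoxicity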
# [4] = off-target signal loss in HeLa-CEM21 co-culture – HeLa F-luc CTL cells, cherry-picked, counter-screen for HIV-1 Env fusion inhibitor project, dose response (AID 652040); assay type: functional, cell-based;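 further: potency for signal decrease marking cytotoxic or nonspecific inhibition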
# [5] = ZM109 Env clade C HIV-1 fusion inhibitors, dose response, HeLa effector, CEM target cells, luciferase, cherry-pick (AID 652058); assay type: functional, cell-based
# [6] = molecular target: T1, Aryl hydrocarbon receptor (Homo sapiens, UniProt P35869); assay: Luminescence-based cell-based high throughput dose response assay for activators of the Aryl Hydrocarbon Receptor (AHR). [Related pubchem assays: 2796 (Primary screen (AHR activators in singlicate)), 2845 (Confirmation screen (AHR activators in triplicate)), 434939 (Counterscreen (PXR activators in triplicate)), 2804 (Summary (AHR activators))]; assay type: ADME
# T1 sequence (P35869 whole entry): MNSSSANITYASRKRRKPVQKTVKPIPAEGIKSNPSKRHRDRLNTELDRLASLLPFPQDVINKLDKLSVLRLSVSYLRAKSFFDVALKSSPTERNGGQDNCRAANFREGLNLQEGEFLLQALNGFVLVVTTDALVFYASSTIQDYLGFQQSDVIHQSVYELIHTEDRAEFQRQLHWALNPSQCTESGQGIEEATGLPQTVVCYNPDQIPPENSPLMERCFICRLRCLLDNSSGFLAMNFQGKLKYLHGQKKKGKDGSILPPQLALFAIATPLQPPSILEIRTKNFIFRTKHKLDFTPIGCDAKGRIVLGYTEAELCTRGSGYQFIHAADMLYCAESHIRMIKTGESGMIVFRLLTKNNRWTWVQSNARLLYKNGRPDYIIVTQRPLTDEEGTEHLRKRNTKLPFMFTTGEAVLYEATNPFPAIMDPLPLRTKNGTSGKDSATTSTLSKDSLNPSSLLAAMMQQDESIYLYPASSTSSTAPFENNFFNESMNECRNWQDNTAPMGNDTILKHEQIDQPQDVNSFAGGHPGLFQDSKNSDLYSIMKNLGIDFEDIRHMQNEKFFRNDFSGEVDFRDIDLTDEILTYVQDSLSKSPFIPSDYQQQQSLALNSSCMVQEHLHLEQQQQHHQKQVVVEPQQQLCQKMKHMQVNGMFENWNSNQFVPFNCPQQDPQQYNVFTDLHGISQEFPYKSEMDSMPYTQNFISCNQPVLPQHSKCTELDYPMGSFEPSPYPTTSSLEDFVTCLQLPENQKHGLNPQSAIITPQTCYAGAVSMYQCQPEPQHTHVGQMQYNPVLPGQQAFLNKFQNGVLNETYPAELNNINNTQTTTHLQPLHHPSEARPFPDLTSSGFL
# [7] = molecular target: Mitogen-activated protein kinase 10 (Homo sapiens, UniProt P53779); assay: Dose response biochemical screening assay for inhibitors of c-Jun N-Terminal Kinase 3 (JNK3). [Related pubchem assays: 746 ]
# Major prion protein = Major prion protein (Homo sapiens, UniProt P04156); assay type: functional, cell-based
# cells [8] = assay: cells
# fMet-Leu-Phe receptor = molecular target: T2, fMet-Leu-Phe receptor (Homo sapiens, UniProt P21462); assay: FPR ligands, dose response (AID 519); assay type: functional
# T2 sequence (P21462 whole entry): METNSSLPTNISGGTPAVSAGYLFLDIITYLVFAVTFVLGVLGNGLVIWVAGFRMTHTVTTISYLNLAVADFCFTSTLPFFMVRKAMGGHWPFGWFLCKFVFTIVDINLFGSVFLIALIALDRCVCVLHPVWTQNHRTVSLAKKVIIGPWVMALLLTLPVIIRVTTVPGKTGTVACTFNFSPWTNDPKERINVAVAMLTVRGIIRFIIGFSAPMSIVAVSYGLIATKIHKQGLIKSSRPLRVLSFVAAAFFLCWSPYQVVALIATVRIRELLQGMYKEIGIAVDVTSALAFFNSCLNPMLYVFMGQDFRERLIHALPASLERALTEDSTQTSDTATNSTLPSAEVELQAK
# [9] = P. falciparum late gametocyte killing, dose response, luminescence (AID 1117278); assay type: functional, cell-based;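 further: gametocytes exposed to compound for 24 hours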
# [10] = Jurkat T cell cytotoxicity, dose response, cytotoxicity control for P. falciparum gametocyte viability project, luminescence (AID 1117277); assay type: functional, cell-based;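 further: potency reflects loss of cellular ATP meaning fewer viable cells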
# [11] = T. cruzi growth inhibition in host cells, dose response, cell-based, plate reader, dry powder, set 2 (AID 652275); assay type: functional
# cells [12] = assay: cells; remark: listed apart in the source
# [13] = molecular target: T3, Oxysterols receptor LXR-beta (Homo sapiens, UniProt P55055); assay type: functional, cell-based;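 further: Cell-based luminescence dose-response assay of agonist activity at LXR, run as a confirmatory counterscreen to a daf-12 agonist screen; HEK293 cells with Gal4-LXR fusion and GAL4-driven luciferase reporter; agonist potency from rising luciferase signal of a Gal4-LXR reporter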
# T3 sequence (P55055 whole entry): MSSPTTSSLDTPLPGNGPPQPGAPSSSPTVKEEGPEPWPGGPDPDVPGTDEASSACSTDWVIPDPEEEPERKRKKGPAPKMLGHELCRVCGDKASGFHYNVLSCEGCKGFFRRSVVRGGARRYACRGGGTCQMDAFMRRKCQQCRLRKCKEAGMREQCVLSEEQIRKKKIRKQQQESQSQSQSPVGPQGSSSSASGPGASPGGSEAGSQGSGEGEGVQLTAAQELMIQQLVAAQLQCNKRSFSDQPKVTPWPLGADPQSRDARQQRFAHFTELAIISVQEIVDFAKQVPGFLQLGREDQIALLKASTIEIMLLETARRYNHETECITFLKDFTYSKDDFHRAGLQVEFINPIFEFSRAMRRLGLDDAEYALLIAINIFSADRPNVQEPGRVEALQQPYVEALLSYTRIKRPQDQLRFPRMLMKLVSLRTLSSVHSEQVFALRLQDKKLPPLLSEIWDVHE
# [14] = molecular target: T4, Luciferin 4-monooxygenase (Photinus pyralis, UniProt P08659); assay: Counter Screen for Luciferase-based Assay Positives. [Related pubchem assays: 620, 618, 411 ]
# [15] = molecular target: T4, Luciferin 4-monooxygenase; assay: firefly luciferase enzyme inhibitors, dose response, biochemical, luminescence (AID 1891)
# [16] = growth suppression of beta-catenin-knockout colon cells, dose response, cell-based, HCT116, human colon tumor (AID 1045); assay type: functional;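 further: HCT116 colon tumor cells with beta catenin knocked out; cells exposed to compound for 60 hours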
# [17] = Luminescence Cell-Based Dose Confirmation HTS to Identify Inhibitors of Platelet Dense Granule Release. [Related pubchem assays: 1663 (Primary HTS), 1678 (Summary of Project)]; assay type: functional
# HT-1080 = assay: cytotoxicity in HT1080 fibrosarcoma cells, cell-based, fluorescence readout (AID 620); assay type: functional; details: Homo sapiens
# [18] = growth suppression of PTEN-null colon cells, dose response, cell-based, HCT116 PTEN knockout (AID 1047); assay type: functional;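 further: HCT116 colon tumor cells with PTEN knocked out; cells exposed to compound for 60 hours before readout; potency for loss of cell viability measured by luminescence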
smiles,measurement,setting,value
CCc1ccc(OCC(=O)NCC(c2ccc(Cl)cc2)N2CCCCC2)cc1 (configuration not stated),AC50,[1],8.41 µM (active)
same,AC50,[2],3.95 µM (active)
same,AC50,[3],28.4 µM (active)
same,AC50,[4],9.03 µM (active)
same,AC50,[5],4.51 µM (active)
CC(=O)Nc1cccc(OCC(=O)Nc2ccc(F)cc2)c1,EC50,[6],10.6 µM (not active)
O=C(NCc1nc2ccccc2[nH]1)c1cccs1,IC50,[7],43 µM (not active)
O=C(O)CCSc1ccc2ccccc2n1,IC50,Major prion protein,3.19 µM (active)
same,IC50,cells [8],> 138 µM (inactive)
same,IC50,[7],34.8 µM (not active)
COc1ccc(-c2cn3cccnc3n2)cc1NC(=O)C1CC1,Ki,fMet-Leu-Phe receptor,> 66.7 µM (inactive)
COc1cc(C2NC(=O)NC(C)=C2C(=O)OC2CCCC(C)C2)ccc1O (configuration not stated),IC50,[7],39.4 µM (not active)
NC(=O)c1c(Br)n(C2OC(CO)C(O)C2O)c2ncnc(N)c12 (configuration not stated),AC50,[1],7.68 µM (active)
same,AC50,[2],3.32 µM (active)
same,AC50,[3],3.1 µM (active)
same,AC50,[4],28 µM (active)
same,AC50,[5],5 µM (active)
CC(=O)Nc1ccc(N(C(=O)CNC(=O)c2ccco2)C(C(=O)NCC2CCCO2)c2ccccc2)cc1 (configuration not stated),IC50,[9],> 109 µM (inactive)
same,IC50,[10],> 83.3 µM (inactive)
CC(C)N1C[C@H](CNCc2ccc(Oc3ccccc3)cc2)Oc2c(NC(=O)c3ccncc3)cccc2C1=O,AC50,[11],16.4 nM (active)
CC(C)N1CC[C@@H](CNCc2ccc(Oc3ccccc3)cc2)Oc2c(NC(=O)c3ccncc3)cccc2C1=O,AC50,[11],83 nM (active)
Cc1cccc(-c2ccc([C@H]3[C@H](CO)N4CCCCN(C(=O)c5cccnc5)C[C@@H]34)cc2)c1,AC50,[11],2300 nM (active)
CCc1cc(/C(Cc2ccc3ccccc3n2)=N\O)c(O)cc1O,EC50,[6],> 3.39 µM (active)
CC(=O)SCC(=O)/N=c1\sc2cc(F)ccc2n1C,Ki,fMet-Leu-Phe receptor,22.8 µM (inactive)
Cc1ccc(-c2nc(N/N=C/c3ccncc3)c3ccccc3n2)cc1,EC50,cells [12],> 67.5 µM (inactive)
same,EC50,[13],> 67.5 µM (inactive)
same,EC50,[14],7.97 µM (active)
same,EC50,[15],158 nM (active)
same,EC50,[16],43.7 µM (active)
same,EC50,[17],209 nM (active)
same,EC50,HT-1080,> 50 µM (not active)
same,EC50,[18],59.3 µM (active)

# From ChEMBL document CHEMBL1201862, “PubChem BioAssay data set” (2004)
